US20080249317A1 (APOTEX INC., priority 2007, published 2008)
Structures can show the parent of a compound that is named as a salt.

Key:
[1] = Dissolution of 1 gram of crystalline carvedilol phosphate in methanol; assay type: physicochemical
Text: The improved solubility by the addition of acetic acid is exemplified by the following results.

[2] = acidic medium such as gastric fluid; background statement; cited from earlier work

Compound	methanol in which a solution was formed ([1]; containing 2% acetic acid (w/w relative to the carvedilol), solution formed rapidly)	methanol required for dissolution ([1]; in the absence of acetic acid)	solubility [2]
carvedilol phosphate [crystalline carvedilol phosphate]	3 mL	about 100 mL	–
COc1ccccc1OCCNCC(O)COc1cccc2[nH]c3ccccc3c12 (stereo not drawn) [hydrochloride salt, 1,1-(9H-Carbazol-4-yloxy)-3-[[2-(2-methoxyphenoxy)ethyl]amino]-2-propanol]	–	–	reduced solubility
